In US20120095058A1, “Method of preventing survival of retrovirally cells and of inhibiting formation of infectious retroviruses” (priority 2003, published 2012):

How the values were obtained:
[1] = tested on: HIV-1 infected H9 cells; assay: Apoptosis of HIV-1 infected H9 cells by TUNEL flow cytometry; assay type: cell-based, human; details: for apoptosis at maximal concentration: H9 cells, IMP 400 μM, DES 20 μM; for initiation of apoptosis: HIV-1 infected lymphocyte cell line H9, dose dependence
Method: (§1) Methods: The drug deferiprone (DEF) and ciclopirox (CPX), known as DOHH inhibitors, were compared to the chelators 2-imidazoyl-4-methylphenol (IMP) and desferal (DES). Apoptosis of HIV-1 infected H9 cells, HPV-16 infected SiHa cells, and uninfected lymphocytes was analyzed by TUNEL flow cytometry. DOHH) activity was measured by metabolic labeling with 3H-spennidine.

[2] = target: T1, deoxyhypusine hydroxylase (DOHH) (Homo sapiens, UniProt Q9BU89); assay: DOHH activity in HIV-1 infected H9 cells by metabolic labeling with 3H-spermidine; assay type: cell-based; parameters: inhibition of DOHH: dose or concentration left out as unconfirmed; details: for concentration with complete suppression of DOHH activity: H9 cells; for inhibition of cellular DOHH: HIV-1 infected H9 cells, dose dependence
T1 construct: endogenous in cells; host or cells: HIV-1 infected H9 cells
T1 sequence (Q9BU89 1-302): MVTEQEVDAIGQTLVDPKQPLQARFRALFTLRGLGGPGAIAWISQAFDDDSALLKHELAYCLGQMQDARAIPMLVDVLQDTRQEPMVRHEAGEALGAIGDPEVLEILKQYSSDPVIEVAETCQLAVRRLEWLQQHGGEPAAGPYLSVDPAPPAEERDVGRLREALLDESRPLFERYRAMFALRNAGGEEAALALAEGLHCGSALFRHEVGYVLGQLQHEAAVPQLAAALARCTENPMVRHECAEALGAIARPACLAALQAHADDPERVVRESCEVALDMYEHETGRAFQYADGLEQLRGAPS
Method: as §1
DOHH activity was measured by metabolic labeling with radioactive spermidine (see FIG. 2), followed by protein hydrolysis\ and amino acid analysis as reported (Hanauske-Abel et al., FEBS Left. 366, 92-98, 1995, which is hereby incorporated by reference). This finding corroborates the results obtained with purified DOHH (FIG. 3) and is consistent with the findings presented in FIG. 1.

[3] = target: T1, deoxyhypusine hydroxylase (DOHH); assay: DOHH activity in HPV-16 infected SiHa cells by metabolic labeling with 3H-spermidine; assay type: cell-based; parameters: inhibition of DOHH: dose or concentration left out as unconfirmed; details: for inhibition of DOHH: HPV-positive SiHa cells
Method: as §1

[4] = tested on: uninfected lymphocytes; assay: Apoptosis of uninfected lymphocytes by TUNEL flow cytometry; assay type: cell-based, human; details: for apoptosis of lymphocytes harvested from healthy volunteers: exposed for 20 hours
Method: as §1

[5] = tested on: HPV-16 infected SiHa cells; assay: Apoptosis of HPV-16 infected SiHa cells by TUNEL flow cytometry; assay type: cell-based, human
Method: as §1

[6] = tested on: HIV-1 spliced and unspliced transcripts; assay: RNase protection assay of spliced and unspliced HIV-1 transcripts in transfected 293T cells; assay type: cell-based, human; details: 30 μM, FIG. 1A
Method: (§2) (A, B) Inhibition of accumulation of spliced and unspliced HIV transcripts. Human 293 T cells were co-transfected with plasmids carrying the HIV-1 molecular clone (10 μg) and a CMV-Renilla luciferase construct (2 μg). Ciclopirox (CPX) or Princeton 2 (P2) were added to a final concentration of 30 μM 3 hours later. RNA was isolated from nuclear and cytoplasmic fractions at 15 hours after transfection. RNase protection assays used probes for the HIV-1 major splice donor site sequence (A), and Renilla luciferase (B). Arrows indicate the positions of protected probe fragments corresponding to unspliced (US) and spliced (S) HIV-1 RNA and Renilla luciferase (R-Luc). Lanes marked ‘Probe’ contain undigested probe RNA equivalent to 10% of the input to protection assays. The radioactivity of the protected bands, quantified with a phosphoimager using ImageQuant, is expressed in relative units.
(§3) Cells and plasmids. 293T cells were grown in Dulbecco's Modified Eagle's medium with 10% fetal bovine serum. pBSIIKS+HIV(+80-341) was constructed by subcloning the PCR-amplified HIV-1 sequence corresponding to nucleotides +80 to +341 of the HIV molecular clone (pNL4-3-Luc E-) between the SmaI and HindIII sites of the pBluescriptllKS+ vector (Stratagene, Calif.). Plasmids pSP-rluc and pCMV-Renilla were purchased from Promega (Madison, Wis.). […]

[7] = tested on: CMV-Renilla luciferase transcript; assay: RNase protection assay of CMV-Renilla luciferase transcript in transfected 293T cells; assay type: cell-based, human; details: 30 μM, FIG. 1B
Method: as §2, §3

[8] = tested on: HIV-1 molecular clone pNL4-3-Luc E-; assay: Firefly luciferase reporter in full-length HIV-1 molecular clone pNL4-3-Luc E-, 293T cells; assay type: cell-based, human; details: 30 μM, 12 hours post-transfection, FIG. 1C left
Method: (§4) (C) Specificity of inhibition by CPX. Cells were co-transfected with 500 ng pNL4-3-Luc E-, or with 100 ng of HIV-1 LTR-firefly luciferase reporter plasmid and 20 ng of pRSV-Tat, together with 100 ng of CMV-Renilla luciferase reporter plasmid. Buffer (Control), 30 μM ciclopirox (CPX), or 30 μM Princeton 2 (P2) was added during transfection, and cells were harvested at 12 hours post-transfection for luciferase assay. Results are presented as the ratio of firefly luciferase to Renilla luciferase, normalized to the controls, with standard deviations indicated.
(§5) Cells and plasmids. 293T cells were grown in Dulbecco's Modified Eagle's medium with 10% fetal bovine serum. pBSIIKS+HIV(+80-341) was constructed by subcloning the PCR-amplified HIV-1 sequence corresponding to nucleotides +80 to +341 of the HIV molecular clone (pNL4-3-Luc E-) between the SmaI and HindIII sites of the pBluescriptllKS+ vector (Stratagene, Calif.). Plasmids pSP-rluc and pCMV-Renilla were purchased from Promega (Madison, Wis.). The plasmids pRSV-Tat and pLTR-firefly luciferase were described earlier (Hogue et al. MCB 2003). The HIV-1 molecular clone pNL4-3-Luc E-, in which part of the Nef gene is replaced by firefly luciferase and the envelope gene is mutated (Chen B. K., J. Virol. 1994), was generously supplied by Dr. D. Baltimore.
(§6) Gene expression assays. […]

[9] = tested on: HIV-1 LTR-firefly luciferase reporter; assay: HIV-1 LTR-firefly luciferase reporter with pRSV-Tat, 293T cells; assay type: cell-based, human; details: 30 μM, compared to control and P2, FIG. 1C right
Method: as §4, §5, §6

[10] = target: T2, purified DOHH (Homo sapiens, UniProt Q9BU89); assay: Inhibition of purified DOHH with labeled deoxyhypusine-containing eIF5A substrate; assay type: biochemical; details: FIG. 3
T2 sequence (Q9BU89 1-302): T1 sequence (Q9BU89 1-302)
Method: The assay was conducted by using purified enzyme and offering deoxhypusine-containing, deoxhypusine-labeled eIF5A as substrae, plus the appropriate cofactors (see FIG. 2). Enzyme activity was assessed by determining the amount of mature, ie. radioactive hypusine-containing eIF5A via protein hydrolysis, followed by amino acid analysis.

[11] = tested on: HIV-1; assay: p24 formation in HIV-1-infected H9 cells by immunoassay; assay type: cell-based, human; details: FIG. 5
[12] = tested on: patient-isolate of HIV-1; assay: HIV-1 p24 and RNA formation in fresh peripheral blood mononuclear cells acutely infected with a patient isolate; assay type: cell-based, human; details: acutely infected PBMC
Excerpt: This system is considered a close model for the actual infection of a human being by ‘wild-type’ HIV-1.

[13] = tested on: peripheral blood mononuclear cells acutely infected with HIV-1; assay: Apoptosis in fresh peripheral blood mononuclear cells acutely infected with a patient isolate of HIV-1; assay type: cell-based, human; details: preferentially when acutely infected with HIV-1, FIG. 8
Excerpt: This effect is ascribed to the suppression of retroviral antiapoptotic proteins as part of the general suppression of retroviral protein synthesis, as exemplified by the decrease in p24 (FIG. 6).

[14] = tested on: patient-isolate of HIV-1; assay: HIV-1 p24, RNA and proviral DNA in peripheral blood mononuclear cells chronically infected with a patient isolate; assay type: cell-based, human; details: FIG. 9
Method: The double y-axis plot of FIG. 9 summarizes the effect of deferiprone on HIV protein synthesis (p24 [left y-axis]), HIV RNA synthesis (copies [right y-axis]), and the presence of HIV DNA, integrated as provirus into the genome of the infected host cells. The cell system and mode of infection used are the same as in FIGS. 6 to 8, i.e. freshly isolated peripheral blood mononuclear cells infected with a patient-isolate of HIV-1, except that the compound was added only after the full-blown infection had developed. The design requires the addition of uninfected cells very second day, so as to keep the infection from burning out. […] The near-eradication of provirus is attributed to the selective apoptotic ablation of HIV-infected cells by DOHH inhibitors (see FIG. 8).

## 2-imidazoyl-4-methylphenol [IMP]
[1]
  apoptosis at maximal concentration: failed to elicit apoptosis
[2]; HIV-positive H9 cells
  inhibition of DOHH: uniformly ineffective
[3]
  inhibition of DOHH: uniformly ineffective

## CC(=O)N(O)CCCCCNC(=O)CCC(=O)N(O)CCCCCNC(=O)CCC(=O)N(O)CCCCCN [DES]
[1]
  apoptosis at maximal concentration: failed to elicit apoptosis
[4]
  apoptosis of lymphocytes harvested from healthy volunteers: failed to respond with apoptosis

## Cc1cc(C2CCCCC2)n(O)c(=O)c1 [ciclopirox, 6-cyclohexyl-l-hydroxy-4-methyl-2(1H)-pyridone]
[1]; 40 μM, 18 hours (overnight), HIV-1 infected H9 cells
  apoptosis, share of all cells: more than 30%
[1]
  initiation of apoptosis: dose-dependent initiation of apoptosis
[1]; listed as CPX
  initiation of apoptosis: triggered dose-dependent apoptosis
[1]; comparison compound class not given
  potency in causing a very similar spectrum of effects: about ten times more potent
[2]
  concentration with complete suppression of DOHH activity: 40 µM
  inhibition of cellular DOHH: dose-dependent inhibition
[2]; listed as (2)
  inhibition of cellular DOHH: dose-dependent inhibition
[2]; listed as CPX
  inhibition of cellular DOHH: inhibited DOHH
[3]; 40 μM
  DOHH activity of SiHa cells: totally suppressed
[3]; dose dependence
  inhibition of DOHH: inhibited DOHH
[5]
  apoptosis in HPV infected human keratinocytes: does not trigger apoptosis
[5]; 40 μM, even after 120 hours
  apoptosis in SiHa cells: did not initiate apoptosis
[4]
  apoptosis in native human lymphocytes not infected by HIV-1: does not trigger apoptosis
  apoptosis of lymphocytes harvested from healthy volunteers: failed to respond with apoptosis
[6]
  accumulation of spliced and unspliced HIV-1 transcripts: selectively suppresses
[7]
  transcript accumulation encoded by cytomegalovirus (CMV): does not affect transcript accumulation
[8]
  expression of firefly luciferase reporter encoded in full-length genomic HIV-1 clone: distinctly more inhibitory effect than P2
[8]; listed as Ciclopirox
  expression of firefly luciferase reporter encoded in full-length genomic HIV-1 clone: reduces gene expression
[9]
  luciferase gene expression from HIV-1 LTR reporter lacking RRE: did not reduce luciferase gene expression
[10]
  inhibition of purified DOHH: disctinctly more susceptible to inhibition
[11]
  retroviral protein synthesis assessed via p24: suppressed retroviral protein synthesis
[12]; FIG. 6
  formation of retroviral p24 protein: efficient in suppressing
[12]; PCR, FIG. 7
  formation of retroviral RNA, viral load: efficient in suppressing
[13]
  apoptosis in PBMC: triggers apoptosis

## Cc1c(O)c(=O)ccn1C [deferiprone]
[1]
  initiation of apoptosis: triggered dose-dependent apoptosis
[2]
  concentration with complete suppression of DOHH activity: 200 µM
  inhibition of cellular DOHH: inhibited DOHH
[3]; dose dependence
  inhibition of DOHH: inhibited DOHH
[4]
  apoptosis of lymphocytes harvested from healthy volunteers: failed to respond with apoptosis
[14]; compound added after full-blown infection
  HIV protein synthesis (p24): undetectable
[14]; end of experiment
  HIV DNA integrated as provirus: at best a trace of integrated provirus
[14]; over the days after p24 became undetectable
  HIV RNA: dropped to the limit of detection
